{"source": "patent US20230107216A1", "about": "“PANTETHEINE DERIVATIVES AND USES THEREOF” (Comet Therapeutics, Inc., priority 2018, published 2023)", "key": {"[1]": {"tested_on": "primary fibroblasts (healthy controls and PA, MMA, BCKDK, PDH, VLCAD, LS, PC, GA, VLCFA, KSS, FXN, HD)", "assay": "Measurement of ROS (H2DCFDA) in primary fibroblasts", "format": "cell-based, human", "settings": "Homo sapiens, procedure Example 812, Assay Condition C, read-out: Decreased ROS by at least 10%", "in_short": "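Patient and healthy-control primary fibroblasts switched to supplemented DMEM 24 h before assay, then treated with compound (10 μM) plus H2DCFDA (22 μM) for 2 h (PA, MMA lines) or 24 h (other lines). Kinetic fluorescence at 492/527 nm over 60 min; only live cells analysed.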"}, "[2]": {"tested_on": "oligodendrocyte precursor cells (OPC) in mixed brain cultures", "assay": "Oligodendrocyte precursor cells (OPC) proliferation, O4+ cell count", "format": "cell-based, mouse", "settings": "10 uM", "procedure": "The effect of compounds of the present disclosure was determined on oligodendrocyte precursor cells proliferation (OPC).\nCell culture. Brains of wild type mice (whole brain from 1 or 2 mouse pups) less than postnatal day (P) 2 were isolated and cultured. Briefly, following removal of the meninges, cells were dissociated with 0.25% EDTA/CMF-DMEM and 1% Trypsin (1:1), plated at a density of 75,000 cells/on 0.1 mg/ml poly-L-lysine coated borosilicate glass coverslips in 24-well plates, grown in OPC differentiation media (Oligo media) consisting of DMEM/F12 (Invitrogen 21331-020) supplemented with 1% FBS, 1% N2 Neural Supplement (Invitrogen 17502-048) and PDGF receptor alpha growth factor (Invitrogen 17502-048). Cells were fed every other day and allowed to grow for 7 days in vitro (DIV).\nOPCs treatment with compounds of the present disclosure. Cells were treated with compounds of the present disclosure (50-10 μM) or vehicle (0.1% DMSO) starting at 7 DIV. Media was replaced daily with freshly made working solutions of compounds or vehicle for either 48 h (9 DIV total) or 96 h (11 DIV). The 48 h group consisted of 1 coverslip per condition. The 96 h group was treated in duplicate.\nFresh aliquots of compounds of the present disclosure were made up on the day of treatment, briefly, a 50 mM stock was thawed and used to make up fresh 50 μM working solution in Oligo Media. The fresh 50 μM working solution was diluted further in Oligo Media to make 10 μM working solution. Vehicle controls was made up in fresh Oligo Media using the appropriate amount of vehicle (DMSO). Coverslips were stored in clean 24-well plates at 4° C. until fixed-staining. Cells were imaged using Leica DM5500 fluorescent microscope with LAS-X software.\nExposure settings were maintained at the same rate across compounds of the same time-point. Cells were imaged at 20× and 40× magnifications. At least 5 images were taken per condition. Most conditions had at least 5 images that were counted. 20× images were utilized for counting DAPI (cell nuclei) and O4+ cells.\nTotal DAPI per image for all images was counted using ImageJ as here indicated. • Image was converted to 8 bit • Blue Channel (DAPI) was automatically thresholded by default ImageJ settings • Image noise was reduced by ImageJ>Process>Noise>Despeckle • ImageJ>Process>Binary>Watershed was used to automatically separate merged cell nuclei • ImageJ>Analyze>Analyze Particles was used to obtain final count of DAPI per image • Total number of DAPI-positive cells\nTotal number of O4+ cells per 20× image was manually counted using Adobe Photoshop: • All cell bodies of OPCs with underlying DAPI stain were counted as an O4+ cell • Total number of O4+ cells were recorded in Excel Spreadsheet O4+ cells in mixed brain cultures of wild type mice <P2 treated with compounds of the present disclosure or vehicle were quantified per condition (time point and concentration). The following formula was used to normalize the total cell counts within a compound as well as across compounds treated for the same duration (48h vs. 96h):\n(number of O4+cell counts in Compound X/Average DAPI count for Compound X)*Total Average DAPI count across compounds of same Time Point\nValues were plotted as Scatter Interval plots in Origin. Each data point represents a single image from which O4+ cell values were obtained. Data are presented as mean±S.E.\nImages are at 20× magnification and represent 1-2 coverslips per group. Scale bar, 50 μm."}}, "note": "Read-outs that look alike come from different tables or passages of the source."}
{"smiles": "COC(=O)/C=C/C(=O)SCCNC(=O)CCNC(=O)[C@H](O)C(C)(C)CO", "note": "[Compound 20, Methyl (R,E)-4-((2-(3-(2,4-dihydroxy-3,3-dimethylbutanamido)propanamido)ethyl)thio)-4-oxobut-2-enoate]", "values": [{"measurement": "inhibition at 10 µM", "setting": "[1]; Fibroblast, NPC1 GM22879", "result": "≥ 10", "unit": "%"}, {"measurement": "inhibition at 10 µM", "setting": "[1]; FXN GM04078", "result": "≥ 10", "unit": "%"}, {"measurement": "% Increase OPC proliferation", "setting": "[2]", "result": "≥25", "unit": "%"}]}
